Data from ChEMBL document CHEMBL3885881, “DrugMatrix”.

Species: Rattus norvegicus
Test: DrugMatrix - Regimen: Daily Repeat
Assay type: toxicity, organism-based, Sprague-Dawley
Parameters: regimen Daily Repeat, gender Male, age 6-8 weeks
Conditions: in vivo, sc, […], route mini-PUMP - SUBCUTANEOUS, dose 0.065 mg/Kg, dose level High, vehicle 100 % SALINE; for ABSOLUTE BASOPHIL / ABSOLUTE EOSINOPHIL / ABSOLUTE LYMPHOCYTE / ABSOLUTE MONOCYTE / ABSOLUTE SEGMENTED NEUTROPHIL / BASOPHIL / EOSINOPHIL / ERYTHROCYTE COUNT / HEMATOCRIT / HEMOGLOBIN / LEUKOCYTE COUNT / LYMPHOCYTE / MEAN CORPUSCULAR HEMOGLOBIN / MEAN CORPUSCULAR HEMOGLOBIN CONCENTRATION / MEAN CORPUSCULAR VOLUME / MONOCYTE / NEUTROPHIL / NUCLEATED RED BLOOD CELLS / PLATELET COUNT: tissue Blood; for ALANINE AMINOTRANSFERASE / ALBUMIN / ALKALINE PHOSPHATASE / ASPARTATE AMINOTRANSFERASE / BLOOD UREA NITROGEN / CARBON DIOXIDE / CHLORIDE / CHOLESTEROL / CREATININE / GLUCOSE / LACTATE DEHYDROGENASE / LIPASE / PHOSPHORUS / POTASSIUM / SODIUM / TOTAL BILIRUBIN / TOTAL PROTEIN / URIC ACID: tissue Plasma

## C[C@]12CCC(=O)C=C1CC[C@@H]1[C@@H]2[C@@H](O)C[C@]2(C=O)[C@@H](C(=O)CO)CC[C@@H]12 [ALDOSTERONE]
72 h, time 3 day
  ABSOLUTE BASOPHIL: 0 CELLS/uL
  ABSOLUTE EOSINOPHIL: 0 CELLS/uL
  ABSOLUTE LYMPHOCYTE: 11286 CELLS/uL
  ABSOLUTE MONOCYTE: 180.67 CELLS/uL
  ABSOLUTE SEGMENTED NEUTROPHIL: 1866.67 CELLS/uL
  BASOPHIL: 0%
  EOSINOPHIL: 0%
  ERYTHROCYTE COUNT: 5.69 x10E6/uL
  HEMATOCRIT: 34.17%
  HEMOGLOBIN: 12.73 G/DL
  LEUKOCYTE COUNT: 13.33 x10E3/uL
  LYMPHOCYTE: 84.67%
  MEAN CORPUSCULAR HEMOGLOBIN: 22.37 pg
  MEAN CORPUSCULAR HEMOGLOBIN CONCENTRATION: 37.3 G/DL
  MEAN CORPUSCULAR VOLUME: 60.03 fL
  MONOCYTE: 1.33%
  NEUTROPHIL: 14%
  NUCLEATED RED BLOOD CELLS: 0.33 /100WBC
  PLATELET COUNT: 1067.67 x10E3/uL
  ALANINE AMINOTRANSFERASE: 52.33 u/L
  ALBUMIN: 3.8 G/DL
  ALKALINE PHOSPHATASE: 293.67 u/L
  ASPARTATE AMINOTRANSFERASE: 90 u/L
  BLOOD UREA NITROGEN: 15.67 mg/dL
  CARBON DIOXIDE: 32 mmol/L
  CHLORIDE: 100 MEQ/L
  CHOLESTEROL: 66.33 mg/dL
  CREATININE: 0.14 mg/dL
  GLUCOSE: 146 mg/dL
  LACTATE DEHYDROGENASE: 443 u/L
  LIPASE: 9.33 u/L
  PHOSPHORUS: 11.27 mg/dL
  POTASSIUM: 5.07 MEQ/L
  SODIUM: 146.93 MEQ/L
  TOTAL BILIRUBIN: 0.2 mg/dL
  TOTAL PROTEIN: 5.73 G/DL
  URIC ACID: 1.5 mg/dL
120 h, time 5 day
  ABSOLUTE BASOPHIL: 0 CELLS/uL
  ABSOLUTE EOSINOPHIL: 69 CELLS/uL
  ABSOLUTE LYMPHOCYTE: 17030 CELLS/uL
  ABSOLUTE MONOCYTE: 489 CELLS/uL
  ABSOLUTE SEGMENTED NEUTROPHIL: 1812 CELLS/uL
  BASOPHIL: 0%
  EOSINOPHIL: 0.33%
  ERYTHROCYTE COUNT: 5.8 x10E6/uL
  HEMATOCRIT: 34.77%
  HEMOGLOBIN: 12.97 G/DL
  LEUKOCYTE COUNT: 19.4 x10E3/uL
  LYMPHOCYTE: 87.33%
  MEAN CORPUSCULAR HEMOGLOBIN: 22.4 pg
  MEAN CORPUSCULAR HEMOGLOBIN CONCENTRATION: 37.3 G/DL
  MEAN CORPUSCULAR VOLUME: 60.03 fL
  MONOCYTE: 2.67%
  NEUTROPHIL: 9.67%
  NUCLEATED RED BLOOD CELLS: 0 /100WBC
  PLATELET COUNT: 1473 x10E3/uL
  ALANINE AMINOTRANSFERASE: 47.67 u/L
  ALBUMIN: 3.77 G/DL
  ALKALINE PHOSPHATASE: 252 u/L
  ASPARTATE AMINOTRANSFERASE: 83 u/L
  BLOOD UREA NITROGEN: 11.33 mg/dL
  CARBON DIOXIDE: 36.33 mmol/L
  CHLORIDE: 96.67 MEQ/L
  CHOLESTEROL: 64.33 mg/dL
  CREATININE: 0.13 mg/dL
  GLUCOSE: 142.67 mg/dL
  LACTATE DEHYDROGENASE: 335 u/L
  LIPASE: 9 u/L
  PHOSPHORUS: 11.97 mg/dL
  POTASSIUM: 5.4 MEQ/L
  SODIUM: 147.3 MEQ/L
  TOTAL BILIRUBIN: 0.17 mg/dL
  TOTAL PROTEIN: 5.53 G/DL
  URIC ACID: 1.93 mg/dL
Time 14 day
  ABSOLUTE BASOPHIL: 0 CELLS/uL
  ABSOLUTE EOSINOPHIL: 65.4 CELLS/uL
  ABSOLUTE LYMPHOCYTE: 13364.4 CELLS/uL
  ABSOLUTE MONOCYTE: 314 CELLS/uL
  ABSOLUTE SEGMENTED NEUTROPHIL: 2076.2 CELLS/uL
  BASOPHIL: 0%
  EOSINOPHIL: 0.6%
  ERYTHROCYTE COUNT: 6.35 x10E6/uL
  HEMATOCRIT: 37.42%
  HEMOGLOBIN: 13.62 G/DL
  LEUKOCYTE COUNT: 15.82 x10E3/uL
  LYMPHOCYTE: 84%
  MEAN CORPUSCULAR HEMOGLOBIN: 21.48 pg
  MEAN CORPUSCULAR HEMOGLOBIN CONCENTRATION: 36.4 G/DL
  MEAN CORPUSCULAR VOLUME: 59.08 fL
  MONOCYTE: 2%
  NEUTROPHIL: 13.4%
  NUCLEATED RED BLOOD CELLS: 0 /100WBC
  PLATELET COUNT: 1043.2 x10E3/uL
  ALANINE AMINOTRANSFERASE: 55.8 u/L
  ALBUMIN: 4.14 G/DL
  ALKALINE PHOSPHATASE: 346.6 u/L
  ASPARTATE AMINOTRANSFERASE: 86.8 u/L
  BLOOD UREA NITROGEN: 12.2 mg/dL
  CARBON DIOXIDE: 43 mmol/L
  CHLORIDE: 94.2 MEQ/L
  CHOLESTEROL: 64.6 mg/dL
  CREATININE: 0.17 mg/dL
  GLUCOSE: 150.2 mg/dL
  LACTATE DEHYDROGENASE: 88.6 u/L
  LIPASE: 9.2 u/L
  PHOSPHORUS: 11.36 mg/dL
  POTASSIUM: 4.4 MEQ/L
  SODIUM: 147.78 MEQ/L
  TOTAL BILIRUBIN: 0.14 mg/dL
  TOTAL PROTEIN: 6.2 G/DL
  URIC ACID: 1.72 mg/dL
